The source of these data is patent US20140296223A1, “METHOD FOR REGULATING SKIN PIGMENTATION” (THE GENERAL HOSPITAL CORPORATION, priority 2011, published 2014).

The subject of data set [1] is Skme15. In words: Toxicity with fluorescence viability probe (CellTiter-Fluo Cell Viability Assay). In kind it is cell-based, human. The following applies: composite of the variation between drug-treated and control divided by the standard error. On the procedure:
Although the shape of the dose-response can vary among hits, the inventors chose to include all candidates which produce dose-dependent effects. The fourth criterion which was determined is the IC50 (described formally as qAC50) which represents the half-maximal suppression dose. Most of the candidate hits resided in the high nanomolar to low micromolar range by this criterion (all of these validation data are listed in Table 1). The fifth criterion was maximal suppression (at any dose), which represented the magnitude of suppression which was attainable regardless of the dose required to achieve it. […] The sixth criterion to be determined is the Log P partition coefficient, which is a predictor of lipophilicity. For this, the inventors have used the method of Ghose and Crippen to calculate the predicted octanol-water partition coefficient (J. Comp. Chem. 9, 80(1988)). While this is only an estimate of potential skin penetration, the analysis was carried out because it helps in prioritizing likelihood of topical effectiveness, in theory. The seventh criterion was an analysis of toxicity utilizing a fluorescence viability probe (CellTiter-Fluo™ Cell Viability Assay (Promega)). Interpretation of this endpoint is complicated by the fact that it represents a composite of the variation between drug-treated and control divided by the standard error The results shown in Table 1 indicate 34 candidate molecules which satisfied all of the criteria outlined above. […] Most of their potencies ranged slightly below or above 1 uM. While the lipophilicity scores remain imperfect predictors of skin penetration capability. However, numbers of >3 can be more likely to penetrate.

Data set [2] concerns Microphthalmia Transcription Factor (MITF). In words: TRPM1-luciferase reporter screen for MITF antagonists in Skme15 melanoma cells. The format is cell-based, human. The note with it: screen, suppression of TRPM1-luciferase activity, Skme15 cells. The text has this:
In order to carry out a successful MITF antagonist screen, the inventors utilized a TRPM1-luciferase reporter. […] Therefore, the TRPM1-luciferase reporter stably integrated into melanoma cells is effective for the screening assay. The use of melanoma cells, while less perfectly relevant than primary human melanocytes, afforded the advantages of speed and reproducibility for the screen.
In order to engineer a screen which broadly suppress MITF activity either by suppression of MITF expression or by inhibition of MITF activity, the inventors utilized a luciferase reporter containing the promoter of a strong direct transcriptional target of MITF, i.e., TRPM1 gene, the inventors have identified the active ingredients having the ability of inhibiting the expression or activation of Microphthalmia Transcription Factor (MITF) for medical or esthetic benefit. The inventors have previously identified the TRPM1 gene (also called “Melastatin”) as a direct target of MITF, which contains numerous MITF binding sites, and which directly responds in potent fashion to MITF overexpression (Miller A J, Du J, Rowan S, Hershey C L, Widlund H R, Fisher D E: Transcriptional regulation of the melanoma prognostic marker melastatin (TRPM1) by MITF in melanocytes and melanoma, Cancer Res 2004, 64:509-516). TRPM1 expression also correlates closely to MITF expression within human melanoma cell lines, as well as in clinical pigmented lesions (nevi and melanomas).
The TRPM1 promoter was ligated to the luciferase gene and inserted into a retroviral vector as well as a lentiviral vector. The lentiviral vector was used to infect primary human melanocytes, which then was subjected to a primary screen using the Broad Chemical Genetics core screening facility, and its natural products/extracts libraries. As backup, the retroviral vector was used to stably integrate into the genome of melanoma cells, which can be used for the identical small molecule screen. Screen optimization was carried out using forskolin and MSH as positive control small molecules (which upregulate cAMP and MITF expression (D'Orazio J A, Nobuhisa T, Cui R, Arya M, Spry M, Wakamatsu K, Igras V, Kunisada T, Granter S R, Nishimura E K, Ito S, Fisher D E: Topical drug rescue strategy and skin protection based on the role of Mc1r in UV-induced tanning, Nature 2006, 443:340-344)). Small molecules which suppress MSH induced TRPM1-luciferase without altering cell numbers or viability, represent initial “hits” in this screen. Negative control includes a constitutive luciferase vector within the same cells (eg driven by a constitutive promoter such as thymidine kinase promoter), to control for nonspecific inhibitors of basal transcriptional machinery-something which would otherwise be assessed in detail during secondary/tertiary analyses of candidate hits.
The human melanoma cell line Skme15 was utilized due to the advantageous growth properties as well as the inventors' prior experience that Skme15 expresses a typical level of MITF protein. […] Therefore, an integrated TRPM1-luciferase reporter was generated, and the subsequent cells were cloned twice (serially) to assure purity of the reporter cell population. Cells were maintained in drug selection to assure maintenance of the luciferase reporter (when drug was omitted, eventual loss of the luciferase signal was observed). Following re-cloning, distinct isolates were selected for further use on the basis of clonogenic growth on 384 well plates, as required for the small molecule screen. A positive control for suppression of TRPM1-luciferase signal utilized: a lentivirus encoding shRNA against MITF. […] The day-to-day variability in plating efficiency was analyzed, and found very high reproducibility in the line which was selected for further use in the screen.
The screen was carried out with a library from the Broad Institute comprising a mixture of natural products, known bioactives, and additional compounds (a total of about 13,000 compounds). […]
On the technique in general: In a reporter assay the amount or activity of a reporter protein is the signal.

Consider `Cc1ccc2nc(-c3ccc(NC(=O)CSc4nnc(C)s4)cc3)sc2c1` [N-[4-(6-methyl-1,3-benzothiazol-2-yl)phenyl]-2-[(5-methyl-1,3,4-thiadiazol-2-yl)thio]acetamide], for which the “Viability z-score (treated minus control, divided by standard error)” value in data set [1] stood at 1.032. The same compound registered a Z-Score in data set [2] of −9.3543.

In the case of `COc1ccc(OC)c(S(=O)(=O)N2CCC(C(=O)Nc3ccc(Cl)c(C(F)(F)F)c3)CC2)c1` [N-[4-chloro-3-(trifluoromethyl)phenyl]-1-[(2,5-dimethoxyphenyl)sulfonyl]piperidine-4-carboxamide], the “Viability z-score (treated minus control, divided by standard error)” value in data set [1] is recorded as −0.2442. Moreover, the Z-Score in data set [2] is reported as −9.871.

For `Cc1oc(-c2ccc3c(c2)OCCO3)cc1C(=O)NCC(=O)O` [N-[5-(2,3-dihydro-1,4-benzodioxin-6-yl)-2-methyl-3-furoyl]glycine], the “Viability z-score (treated minus control, divided by standard error)” value in data set [1] was −0.0206. In addition, in data set [2], the Z-Score is −10.0065.

As to `COc1cccc(C(=O)NC(c2ccc(Cl)cc2)c2c(O)ccc3ccccc23)c1` (stereo not shown) [N-[(4-chlorophenyl)(2-hydroxy-1-naphthyl)methyl]-3-methoxybenzamide], the “Viability z-score (treated minus control, divided by standard error)” value in data set [1] is given as −0.1221. The same compound displayed a Z-Score in data set [2] of −11.9861.

In the case of `O=C(CCSc1nc(-c2ccccc2)cs1)Nc1ccccc1` [N-phenyl-3-[(4-phenyl-1,3-thiazol-2-yl)thio]propanamide], in data set [1], the “Viability z-score (treated minus control, divided by standard error)” value is listed as −0.2442. In data set [2], this compound displayed a Z-Score of −10.8255.

Take `O=C(O)COc1cccc(-c2nc3ccccc3s2)c1` [[3-(1,3-benzothiazol-2-yl)phenoxy]acetic acid]: the “Viability z-score (treated minus control, divided by standard error)” value in data set [1] is −0.0206. Also, the Z-Score in data set [2] is −11.9101.

As for `N#CC(C#N)=C(Nc1ccccc1Cl)SCc1cccc(F)c1` [{[(2-chlorophenyl)amino][(3-fluorobenzyl)thio]methylene}malononitrile], the “Viability z-score (treated minus control, divided by standard error)” value in data set [1] is recorded as −1.5092. Further, the Z-Score in data set [2] is −10.3064.

As to `N#CC(C#N)=C(Nc1ccc(Br)cc1)SCc1ccc(F)cc1` [{[(4-bromophenyl)amino][(4-fluorobenzyl)thio]methylene}malononitrile], the “Viability z-score (treated minus control, divided by standard error)” value in data set [1] was −1.5092. In addition, the Z-Score in data set [2] was −9.463.
